Data published in patent publication US10869884B2, “Cyclodextrin based polymers, methods, compositions and applications thereof” (ATEN PORUS LIFESCIENCES, priority 2016, dated 2020).

Legend:
Type in all cases: in vivo, BALB/c mice
ADR-induced nephropathy [1] = experiment: Serum blood urea nitrogen (BUN) in the Adriamycin nephropathy (FSGS) model; details: ADR mice, 40 mg/kg/day s.c., end of study
Experimental: (§1) Experimental Protocol: 6 animals (BALB/c mice) per group of 6-7 weeks of age were used. Nephropathy was induced in all animals, except group 1 (normal control), with Adriamycin (ADR, 11 mg/kg, i.v., single dose) at dose volume of 6 ml/kg. Normal saline (0.9%) was used as vehicle for the reference and test compounds. Treatment was started 24 hours after Adriamycin injection. Groups of animals (n=6) were treated subcutaneously with vehicle, HBCD, Polymer A and Polymer B at the doses and regimens shown in FIG. 10, for 10 weeks. At the end of the study, animals were sacrificed by CO2 exposure, blood samples and kidneys were collected for the estimation of various biomarkers in serum.
Serum Analysis: Serum samples were analysed in an Automated Clinical Chemistry Analyzer EM360, Transasia Bio-medicals Ltd, for albumin and creatinine. • (a) Blood Urea Nitrogen (BUN) assay to assess the level of kidney function was analysed by the GLDH Urease method using an Erba standard BUN kit. (FIG. 13). Administration of ADR to induce nephropathy increased blood urea nitrogen levels as one would expect from an impaired kidney. […] The combination of data from these studies serves to illustrate the potential of the polymers of the present disclosure as treatment options for kidney disease compared to known cholesterol clearance compounds.

[2] = Body weight in the Adriamycin nephropathy (FSGS) dose response/frequency study; details: ADR mice, 40 mg/kg/day s.c., 10 weeks, compared to normal mice
Experimental: as §1
Body weights: Body weights were measured at the beginning of study and weekly throughout for ten weeks (FIG. 11) to provide a general assessment of rodent health after therapy.

ADR-induced nephropathy [3] = experiment: Kidney histopathology (H/E and PAS staining, mesangial expansion) in the Adriamycin nephropathy model; details: ADR mice, 40 mg/kg/day s.c. (group 3), 10 weeks
Experimental: as §1
Histopathology: At the end of the study, kidney samples were collected from each animal, fixed in 10% NBF (Neutral Buffered […]) and subjected to histopathology. Periodic acid-Schiff (PAS) or Hematoxylin and Eosin (H/E) staining of 4 micron-thick tissue sections was performed according to the standard protocols. Mesangial expansion area was determined based on the area of PAS staining.

hydroxypropyl β-cyclodextrin [HBCD]
serum blood urea nitrogen (BUN) level (ADR-induced nephropathy [1]): BUN levels return to that found for the control group | mean body weight [2]: largest drop in mean body weight without any substantial rebound | kidney histopathology (glomeruli appearance) (ADR-induced nephropathy [3]): glomeruli that are normal in appearance
